According to US5089479A, “Adhesion of Mycoplasma pneumoniae and Mycoplasma hominus to sulfatide” (priority 1988, dated 1992):
“Also recorded” adds a separate entry of the source.

Columns and labels:
[1] = test system: M. hominus binding to sulfatide; assay: Inhibition of M. hominus binding to purified sulfatide; set-up: species or system Mycoplasma hominus
[2] = test system: M. pneumoniae adhesion to coverslips; assay: Inhibition of nonspecific adhesion of M. pneumoniae to coverslips without cells; assay type: binding, Mycoplasma pneumoniae strain M129; details: for inhibition of non-specific adhesion to coverslips (in words): coverslips preincubated in medium containing fetal calf serum
Procedure: (§1) Adhesion of [^3 H]-M. pneumoniae to cells on glass covered slips was measured by a modification of a method previously described by Chandler et al., Infect. Immun., op. cit. WiDr human colon adenocarcinoma, ATCC CCL 218 was grown in Eagle's minimal essential medium with 10% fetal calf serum in a 5% CO2 atmosphere at 37° C. The cells were removed with trypsin and plated on 12 mm round glass coverslips in 24-well tissue culture plates and grown for three days. Control coverslips were preincubated in medium without cells. The coverslips were washed in serum-free medium, then incubated in RPMI-BSA for fifteen minutes. The medium was removed and labelled M. pneumoniae suspended in 0.5 ml of RPMI-BSA were added to each well. The plates were incubated on a rocking table for 60 minutes at 37° C. The coverslips were washed by dipping in saline six times, and the bound radioactive bacteria were determined by scintillation counting. For inhibition studies, the inhibitors were added to M. pneumoniae prior to adding the bacteria to the coverslips.
(§2) Adhesion of labelled M. pneumoniae to WiDr cells on glass cover slips was determined as described previously. For inhibition studies, dextran sulfate and 3'-sialyllactose were dissolved in RPMI-BSA and the pH was adjusted to 7.4 with NaOH. The inhibitors were added to wells containing washed cover slips with attached WiDr cells or blank cover slips preincubated in medium or tris-BSA. Labelled M. pneumoniae were added immediately and incubated with slow rocking for sixty minutes at 37° C. After the coverslips were washed by dipping six times in saline, bound M. pneumoniae were determined by scintillation counting in Aquasol. […] After washing to remove the unbound organisms, the bound mycoplasma were determined by scintillation counting. Binding to uncoated wells was 3% of the applied radioactivity.

[3] = test system: M. pneumoniae adhesion to WiDr cells; assay: Inhibition of M. pneumoniae adhesion to WiDr human colon adenocarcinoma cell monolayers; assay type: cell-based
Procedure: as §1
Because virulent strains of M. pneumoniae adhere to mammalian cells, monolayers of WiDr cells were used to determine if dextran sulfate inhibits adhesion of the organism. [^3 H] -labelled M. pneumoniae was incubated with WiDr cell monolayers attached to coverslips in triplicate with an without dextran sulfate, as shown in Table II. […] In each experiment, 10 μg/ml dextran sulfate inhibited more than 1 μg/ml, but 100 μg/ml dextran sulfate caused no further inhibition. Thus, maximal inhibition was obtained with approximately 10 μg/ml of dextran sulfate. Similar results were obtained with MRC5 lung fibroblasts where in three experiments a mean of 47% of M. pneumoniae adhesion was inhibited by dextran sulfate.
as §2
Adhesion of [^3 H]-M. pneumoniae to WiDr cells growing on 13 mm glass cover slips was determined as described above. Inhibition by dextran sulfate or 3'-sialyllactose at the indicated concentrations was calculated relative to control binding determined in RPMI/BSA without inhibitors. The results are presented as percent inhibition (mean±S.D. n=4 with n=8 for determination of control binding without inhibitor).

[4] = test system: M. hominus adhesion to human colon adenocarcinoma cells; assay: Inhibition of M. hominus adhesion to cultured human colon adenocarcinoma cells; assay type: cell-based
[5] = target: M. pneumoniae binding to laminin; assay: Inhibition of M. pneumoniae binding to laminin adsorbed on plastic; set-up: species or system Mycoplasma pneumoniae strain M129
Procedure: (§3) Glycoproteins dissolved in 0.01 M sodium phosphate buffer, pH 7.4, containing 150 mM NaCl, 1 mM CaCl2, and 0.01% NaN3 were adsorbed onto plastic polyvinylchloride […] microtiter plates by incubation for 16 hours at 4° C. The unbound proteins were removed, and the wells were filled with tris-BSA and incubated for 30 minutes at room temperature. The wells were rinsed with RPMI1640 containing 25 mM HEPES, pH 7.3, and 1% bovine serum albumin. M. pneumoniae strain M129 labelled with [^3 H]-palmitate were dispersed in RPMI-BSA by passing four times through a 26 gauge needle, and 50 μl of the suspension was applied to the wells. After incubation for 60 minutes at 37° C., the wells were washed five times with saline and the labelled M. pneumoniae bound to the proteins were quantified by scintillation counting in Aquasol.
For inhibition studies, sugars in 25 μl of RPMI-BSA were added to wells coated with 10 μg/ml laminin followed by 25 μl of [^3 H]-M. pneumoniae. Binding was determined to both laminin-coated and uncoated wells in triplicate at each inhibitor concentration and in the absence of inhibitor. In some experiments, the adsorbed proteins were pretreated with neuraminidase. After adsorption of the proteins and incubation in tris-BSA, the wells were rinsed three times with 50 mM sodium acetate, pH 5.5, containing 150 mM NaCl, 5 mM CaCl2, 1 mg/ml bovine serum albumin, and 1 mM phenylmethanesulfonyl fluoride. The wells were incubated with 0.05 units/ml neuraminidase in the same buffer or with buffer without enzyme overnight at 20° C. The wells were rinsed three times with tris-BSA, and M. pneumoniae binding was determined as described above.

[6] = test system: M. pneumoniae adhesion to MRC5 lung fibroblasts; assay: Inhibition of M. pneumoniae adhesion to MRC5 lung fibroblasts; assay type: cell-based, human; details: mean of three experiments
Procedure: as §1
Because virulent strains of M. pneumoniae adhere to mammalian cells, monolayers of WiDr cells were used to determine if dextran sulfate inhibits adhesion of the organism. [^3 H] -labelled M. pneumoniae was incubated with WiDr cell monolayers attached to coverslips in triplicate with an without dextran sulfate, as shown in Table II. […]

[7] = target: M. pneumoniae binding to sulfatide; assay: Inhibition of M. pneumoniae binding to sulfatide adsorbed on plastic; set-up: species or system Mycoplasma pneumoniae strain M129; details: for inhibition of binding to sulfatide (in words): sulfatide adsorbed on plastic
Procedure: Virulent M. pneumoniae strain M129, passage 5-15, were grown and metabolically labelled with [^3 H]palmitic acid, 12-17 Ci/mole, as described by Chandler et al. in Infect. Immun. 37: 942, 1982. The organisms were passed four times through a 26 gauge needle and suspended to approximately 10^7 cpm/ml of degassed RPMI 1640 medium containing 1% bovine serum albumin and 25 mM HEPES, pH 7.3.
The binding of M. pneumoniae to purified glycolipids immobilized in microtiter plates was measured as described by Krivan et al. in Proc. Natl. Acad. Sci., op. cit. Purified glycolipids were serially diluted in 25 μl of methanol containing 0.1 μg each of the auxiliary lipids cholesterol and phosphatidylcholine. After the solutions were dried by evaporation, the wells were filled with TBS-BSA, emptied after one hour, rinsed with RPMI-BSA, and incubated with 25 μl of [^3 H]-M. pneumoniae, approximately 10^7 cpm/ml RPMI-BSA. After incubation for two hours at 37° C., unless otherwise stated, the wells were washed five times with saline and bound M. pneumoniae was quantified by scintillation counting in Aquasol. For inhibition studies, various polysaccharides were serially diluted in […] of [^3 H]-M. pneumoniae.
To obtain the results shown in FIG. 4, polysaccharides were serially diluted in 25 μl of RPMI-BSA in microtiter wells previously coated with 1 μg of purified sulfatide. Binding was determined after incubation of two hours at 37° C. with 25 μl of [^3 H]-M. pneumoniae with the indicated concentration of dextran ( .circle. ) or dextran sulfate.

M. pneumoniae = M. pneumoniae adhesion to immobilized glycoproteins adsorbed on plastic; assay type: binding, Mycoplasma pneumoniae strain M129; details: for M. pneumoniae adhesion to immobilized glycoprotein (in words): adsorbed on plastic; for Relative binding activity: relative to fetuin = 1.0, from amount for half maximal binding, mean of 2 or 3 experiments
Procedure: as §3, with “Aquasol. […]” for “Aquasol.”

[8] = test system: erythrocyte adhesion to M. pneumoniae; details: relative to fetuin; Loomes et al.; cited from earlier work
[9] = test system: monoclonal antibody My-28; assay: Binding of monoclonal antibody My-28 to immobilized proteins after neuraminidase; details: neuraminidase-treated, adsorbed on plastic
Procedure: Binding of monoclonal antibody My-28 to the immobilized proteins before or after digestion with neuraminidase was determined using a 1:1000 dilution of ascites fluid in tris-BSA. After incubation for two hours at room temperature, the wells were washed three times with tris-BSA. Bound antibody was detected using goat anti-mouse IgM labelled with ^125 I by the Iodogen method.

Molecule: dextran sulfate
- inhibition of M. hominus binding to sulfatide (in words) [1]: completely inhibits binding
- inhibition of non-specific adhesion to coverslips (in words) [2]: not by dextran sulfate
- concentration giving maximal inhibition of adhesion ([3]; WiDr cells): approximately 10 μg/ml
- inhibition of adhesion to WiDr cells (in words) ([3]; WiDr cells): partially inhibit; also recorded: only partially inhibited; also recorded: partially inhibits adhesion; also recorded: partial inhibition
- inhibition of adhesion to WiDr cells (in words) ([3]; WiDr cells, listed as Dextran sulfate): inhibited adhesion in all three experiments
- inhibition of M. hominus adhesion (in words) [4]: partially inhibits adhesion
- I.D.50, substrate laminin ([5]; laminin adsorbed on plastic): > 200 µg/mL
- inhibition of binding to laminin (in words) ([5]; laminin adsorbed on plastic): no effect
- inhibition of binding to laminin (in words) ([5]; laminin adsorbed on plastic, listed as Dextran sulfate): does not inhibit attachment on laminin
- inhibition of M. pneumoniae adhesion [6]: 47%
- concentration inhibiting binding to sulfatide by 50% ([7]; 1 μg sulfatide, 37° C., 2 hours): 0.4 µg/mL
- inhibition of binding to sulfatide at 1 μg/ml (in words) ([7]; 1 μg/ml): completely abolished binding
- inhibition of binding to sulfatide (in words) [7]: potent inhibitor; also recorded: completely inhibits binding
- inhibition of binding to sulfatide (in words) ([7]; listed as Dextran sulfate): inhibits M. pneumoniae binding to sulfatide

Molecule: CC(=O)NC1C(O)CC(OC2C(O)C(CO)OC(OC3C(CO)OC(O)C(O)C3O)C2O)(C(=O)O)OC1C(O)C(O)CO (centres unmarked) [3'-sialyllactose]
- inhibition of non-specific adhesion to coverslips (in words) [2]: specifically inhibited
- inhibition of nonspecific binding to coverslips (in words) ([2]; coverslips preincubated in tris-BSA): does not inhibit nonspecific binding
- inhibition of adhesion to WiDr cells (in words) ([3]; WiDr cells): partially inhibit
- inhibition of adhesion to WiDr cells (in words) ([3]; WiDr cells, listed as 3'-Sialyllactose): The inhibition is dose dependent
- control adhesion remaining ([3]; WiDr, more than ten-fold higher than ID50 for binding to laminin, 60 min): 40%
- inhibition of binding to laminin (in words) ([5]; laminin adsorbed on plastic): inhibited by 3'-sialyllactose at comparable concentrations; also recorded: inhibit attachment of M. pneumoniae to laminin
- IC50 ([5]; oligosaccharide concentrations as sialic acid, read-out: I.D.50, substrate laminin): 300 µM
- IC50 ([7]; oligosaccharide concentrations as sialic acid, read-out: I.D.50, substrate sulfatide): > 5000 µM
- inhibition of binding to sulfatide (in words) [7]: Neither laminin nor 3'-sialyllactose inhibits M. pneumoniae attachment to sulfatide; also recorded: does not inhibit binding to sulfatide

Molecule: Human α1 -acid glycoprotein: glycoprotein
- M. pneumoniae adhesion to immobilized glycoprotein (in words) (M. pneumoniae): neither protein binds M. pneumoniae well
- M. pneumoniae adhesion to immobilized glycoprotein (in words) (M. pneumoniae; listed as alpha-1-acid glycoprotein): weakly active
- Relative binding activity (M. pneumoniae): 0.03
- inhibition of erythrocyte adhesion to M. pneumoniae (in words) [8]: inhibit erythrocyte adhesion to M. pneumoniae better than fetuin

B1: Human type MM glycophorin: glycoprotein (protein, UniProt P02724 20-150, looked up)
Glycophorin-A: LSTTEVAMHTSTSSSVTKSYISSQTNDTHKRDTYAATPRAHEVSEISVRTVYPPEEETGERVQLAHHFSEPEITLIIFGVMAGVIGTILLISYGIRRLIKKSPSDVKPLPSPDTDVPLSSVEIENPETSDQ
modifications: MM blood type
notes: glycoprotein
- M. pneumoniae adhesion to immobilized glycoprotein (in words) (M. pneumoniae; listed as Glycophorin): weakly active
- M. pneumoniae adhesion to immobilized glycoprotein (in words) (M. pneumoniae; listed as glycophorin): neither protein binds M. pneumoniae well
- Relative binding activity (M. pneumoniae): 0.06
- inhibition of erythrocyte adhesion to M. pneumoniae (in words) [8]: inhibit erythrocyte adhesion to M. pneumoniae better than fetuin
- My-28 antibody binding after neuraminidase digestion (in words) [9]: about ten-fold less
